Earlier results as cited in article PMC7953028 (Journal of Pesticide Science, 2021).

What was measured:
DmMet/DmTai complex = DmMet/DmTai complex (Drosophila melanogaster, UniProt O44118)
Sequence of DmMet/DmTai complex (O44118 1-716): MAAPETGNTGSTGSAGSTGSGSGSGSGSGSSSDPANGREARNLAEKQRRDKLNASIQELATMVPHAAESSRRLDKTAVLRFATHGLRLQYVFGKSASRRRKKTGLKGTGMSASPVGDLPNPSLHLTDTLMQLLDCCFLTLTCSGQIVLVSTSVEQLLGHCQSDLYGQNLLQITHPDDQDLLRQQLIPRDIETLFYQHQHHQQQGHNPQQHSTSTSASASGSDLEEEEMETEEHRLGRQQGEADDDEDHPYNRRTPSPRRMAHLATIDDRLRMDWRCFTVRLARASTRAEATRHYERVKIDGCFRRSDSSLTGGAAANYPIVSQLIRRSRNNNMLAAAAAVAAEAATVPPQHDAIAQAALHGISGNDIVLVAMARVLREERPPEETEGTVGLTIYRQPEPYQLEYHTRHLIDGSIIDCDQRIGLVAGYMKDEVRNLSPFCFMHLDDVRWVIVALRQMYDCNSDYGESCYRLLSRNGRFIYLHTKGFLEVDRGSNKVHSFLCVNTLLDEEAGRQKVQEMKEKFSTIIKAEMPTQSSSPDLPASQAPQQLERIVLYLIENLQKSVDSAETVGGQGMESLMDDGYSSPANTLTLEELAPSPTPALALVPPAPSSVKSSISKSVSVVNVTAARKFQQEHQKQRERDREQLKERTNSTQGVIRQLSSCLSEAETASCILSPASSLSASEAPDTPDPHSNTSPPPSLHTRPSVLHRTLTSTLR
Sequence of DmMet/DmTai complex (Q9VLD9 1-2026 partner): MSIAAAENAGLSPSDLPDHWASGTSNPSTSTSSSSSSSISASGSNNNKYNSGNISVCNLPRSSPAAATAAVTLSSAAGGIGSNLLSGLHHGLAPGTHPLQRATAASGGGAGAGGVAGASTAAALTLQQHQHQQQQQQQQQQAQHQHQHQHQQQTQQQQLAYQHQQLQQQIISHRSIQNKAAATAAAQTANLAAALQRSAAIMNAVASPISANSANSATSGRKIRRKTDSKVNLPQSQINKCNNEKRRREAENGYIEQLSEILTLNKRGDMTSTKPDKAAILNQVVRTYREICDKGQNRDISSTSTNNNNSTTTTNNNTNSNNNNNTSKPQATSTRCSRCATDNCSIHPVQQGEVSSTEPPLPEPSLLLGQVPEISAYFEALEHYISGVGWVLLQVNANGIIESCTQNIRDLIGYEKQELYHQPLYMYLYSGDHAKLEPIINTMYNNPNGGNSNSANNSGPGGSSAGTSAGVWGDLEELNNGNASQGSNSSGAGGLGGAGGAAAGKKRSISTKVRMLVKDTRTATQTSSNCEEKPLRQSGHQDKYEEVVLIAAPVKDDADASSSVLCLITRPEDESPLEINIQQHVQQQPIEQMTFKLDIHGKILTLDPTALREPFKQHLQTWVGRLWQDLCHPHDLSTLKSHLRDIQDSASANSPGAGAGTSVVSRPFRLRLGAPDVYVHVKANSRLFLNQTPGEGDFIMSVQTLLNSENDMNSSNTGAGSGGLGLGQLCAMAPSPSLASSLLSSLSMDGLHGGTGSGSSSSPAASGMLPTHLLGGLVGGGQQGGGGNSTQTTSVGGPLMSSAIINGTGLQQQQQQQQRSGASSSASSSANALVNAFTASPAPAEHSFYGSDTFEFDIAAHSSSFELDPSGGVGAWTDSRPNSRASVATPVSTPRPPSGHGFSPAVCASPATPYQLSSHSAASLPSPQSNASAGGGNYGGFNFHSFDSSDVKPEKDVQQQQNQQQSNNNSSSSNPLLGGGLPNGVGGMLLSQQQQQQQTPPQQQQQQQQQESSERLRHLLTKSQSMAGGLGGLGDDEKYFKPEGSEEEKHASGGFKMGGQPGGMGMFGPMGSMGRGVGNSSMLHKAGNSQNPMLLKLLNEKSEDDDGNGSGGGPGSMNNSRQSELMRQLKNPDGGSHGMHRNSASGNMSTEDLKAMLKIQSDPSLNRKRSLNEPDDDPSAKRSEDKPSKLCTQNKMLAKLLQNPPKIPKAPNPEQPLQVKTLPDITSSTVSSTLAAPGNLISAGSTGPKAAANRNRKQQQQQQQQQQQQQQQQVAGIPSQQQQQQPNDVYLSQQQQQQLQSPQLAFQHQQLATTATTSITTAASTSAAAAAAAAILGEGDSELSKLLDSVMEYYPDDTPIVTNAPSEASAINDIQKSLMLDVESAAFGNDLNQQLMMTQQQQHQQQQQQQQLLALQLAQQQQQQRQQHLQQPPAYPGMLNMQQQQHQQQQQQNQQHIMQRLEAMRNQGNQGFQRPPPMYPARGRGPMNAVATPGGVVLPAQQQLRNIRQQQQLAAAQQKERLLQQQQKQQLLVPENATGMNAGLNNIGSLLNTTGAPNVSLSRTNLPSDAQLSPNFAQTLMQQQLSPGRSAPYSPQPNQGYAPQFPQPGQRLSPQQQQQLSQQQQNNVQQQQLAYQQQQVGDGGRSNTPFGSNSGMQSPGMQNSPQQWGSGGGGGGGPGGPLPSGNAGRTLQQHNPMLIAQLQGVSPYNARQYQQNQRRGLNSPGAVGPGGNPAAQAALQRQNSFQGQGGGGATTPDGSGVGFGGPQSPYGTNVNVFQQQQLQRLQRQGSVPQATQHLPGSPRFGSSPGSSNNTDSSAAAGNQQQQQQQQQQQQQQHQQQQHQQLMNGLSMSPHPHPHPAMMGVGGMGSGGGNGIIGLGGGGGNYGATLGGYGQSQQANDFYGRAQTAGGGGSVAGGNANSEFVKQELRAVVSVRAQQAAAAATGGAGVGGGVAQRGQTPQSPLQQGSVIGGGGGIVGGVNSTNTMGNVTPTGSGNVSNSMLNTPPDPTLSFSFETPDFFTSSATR

Structure (SMILES) | log P | activity in reporter system relative to natural JHs (DmMet/DmTai complex)
COC(C)(C)CCC[C@H](C)C/C=C/C(C)=C/C(=O)OC(C)C (racemic) [methoprene] | 5.00 | –
c1ccc(Oc2ccc(OCCOc3nccs3)cc2)cc1 [Compound 1, 2-[2-(4-phenoxyphenoxy)ethoxy]thiazole] | – | outperformed natural JHs
C(#Cc1ccccn1)COc1ccc(Oc2ccccc2)cc1 [Compound 2, 2-[3-(4-phenoxyphenoxy)-1-propyn-1-yl)pyridine] | – | outperformed natural JHs
